Entries after “also recorded” stand apart in the source; their conditions may differ. Where no end group is shown, it is not given here.
How the values were obtained:
[1] = system: C. albicans; assay: microbicidal suspension assay; assay type: cell-based
Description: (§1) Antimicrobial assay. E. coli ML35, S. aureus 502A, C. albicans, and C. neoformans were used as target organisms in a microbicidal suspension assay as previously described (Selsted, M. E., Genetic Engineering: Principles and Methods, J. K. Setlow, Plenum Press, New York, 1993, pp. 131-147).
(§2) Natural and synthetic BGP-A and synthetic BGP-A-amide were tested for their microbicidal activities against S. aureus 502A, E. coli ML35, C. albicans, and C. neoformans. Using a microbicidal suspension assay (Selsted, M. E., Genetic Engineering: Principles and Methods, J. K. Setlow, Plenum Press, New York, 1993, pp.131-147), each peptide was tested against the four test organisms with peptide concentrations ranging from 5-100 μg/ml. The bactericidal and fungicidal activities of the three peptide preparations were assessed using a standard microbicidal assay. Organisms were grown to mid-log phase, harvested, and suspended to 2×10^7 CFU/ml. The incubation mixture contained 1-2×10^6 CFU/ml, 10 mM sodium phosphate buffer, pH 7.4, and peptide at concentrations up to 100 μg/ml. After 1 h of incubation at 37° C. (4 h incubations for C. neoformans), serial 10-fold dilutions were plated on Trypticase Soy Agar (bacteria) or S. abaraud dextrose agar (fungi), and incubated for 24-48 h at 37° C. Killing was quantitated by colony counting, and plotted as a function of peptide concentration in the incubation.

[2] = system: C. neoformans; assay: microbicidal suspension assay; assay type: cell-based
Description: as §1, §2

[3] = system: E. coli ML35; assay: microbicidal suspension assay; assay type: cell-based
Description: as §1, §2

[4] = system: S. aureus 502A; assay: microbicidal suspension assay; assay type: cell-based
Description: as §1, §2

[5] = system: E. coli; conditions: Selsted et al., J. Biol. Chem. 267:4292-4295, 1992; cited from earlier work
[6] = system: S. aureus; conditions: Selsted et al., J. Biol. Chem. 267:4292-4295, 1992; cited from earlier work
[7] = 1 h incubation, synthetic versus natural peptide, listed as synthetic BGP-A
[8] = peptide 5-100 μg/ml, 10 mM sodium phosphate buffer, pH 7.4, 1 h at 37° C., FIG. 7

Substance	microbicidal potency compared with natural BGP-A [1, 7]	microbicidal activity (reduction in colony forming units) [1, 8]	microbicidal potency compared with natural BGP-A ([2]; 4 h incubation, synthetic versus natural peptide, listed as synthetic BGP-A)	microbicidal activity (reduction in colony forming units) ([2]; peptide 5-100 μg/ml, 10 mM sodium phosphate buffer, pH 7.4, 4 h at 37° C., FIG. 7)	microbicidal potency compared with natural BGP-A [3, 7]	microbicidal activity (reduction in colony forming units) [3, 8]	microbicidal potency compared with natural BGP-A [4, 7]	microbicidal activity (reduction in colony forming units) [4, 8]	bactericidal activity [5]	bactericidal activity [6]
YKIIQQWPHYRRV [BGP-A, thirteen-residue peptide antibiotic expressed in bovine granulocytes, …; tested as natural and synthetic preparations]	equal in potency; also recorded: equivalent killing activity	microbicidal	equal in potency; also recorded: equivalent killing activity	microbicidal	equal in potency; also recorded: equivalent killing activity	microbicidal	equal in potency; also recorded: equivalent killing activity	microbicidal		
indolicidin: novel tridecapeptide amide from bovine neutrophils, cationic, unusually rich in tryptophan (ILPWKWPWWPWRR-NH2; UniProt P33046 131-143, looked up)									potent bactericidal activity	potent bactericidal activity

Reference: patent US6696559B1, “Antimicrobial peptides and methods of use” (The Regents of the University of California, priority 1996, dated 2004)
